Assay results: article PMC10724293, “New ruthenium-xanthoxylin complex eliminates colorectal cancer stem cells by targeting the heat shock protein 90 chaperone” (Cell Death & Disease, 2023)

What was measured:
Assay type in all cases: cell-based, human
[1] = system: HCT116 cells; experiment: Colonosphere assay
Experimental: HCT116 cells, at densities of 1.25 × 10^5 cells/ml, were cultured in 24-well low adhesion plates (Corning, USA) in serum-free DMEM-F12 supplemented with 20 ng/ml bFGF (PeproTech, USA), 20 ng/ml EGF (PeproTech, USA), and B27 supplement (Invitrogen, Carlsbad, CA, USA). On the following day, the cells were subjected to drug concentrations of 20, 10, 5, 2.5, and 1.25 μM. The cells were photographed using an optical microscope after 0, 24, 48, and 72 h of incubation (Leica, DMI8). Furthermore, 10 µM RXC-treated cells were stained with acridine orange/PI and analyzed by confocal microscopy or stained with anti-CD133 antibody plus YO-PRO-1 and analyzed by flow cytometry.

[2] = system: SCC-25; experiment: Alamar blue cytotoxicity assay; details: 72 h, read-out: IC50 and 95%CI
Experimental: (§1) The Alamar blue assay was used to determine cell viability as previously described. Cells were seeded into 96-well plates at a density of 7 × 10^3 cells per well for adherent cells or 3 × 10^4 cells per well for suspended cells. The drug was added to each well after 24 h of incubation for adherent cells or immediately for suspended cells and incubated for an additional 72 h. […] Each well received 100 µM resazurin (Sigma-Aldrich Co. St. Louis, MO, United States) four (for cell lines) or 24 (for primary culture) h before the end of the incubation. A SpectraMax 190 Microplate Reader (Molecular Devices, Sunnyvale, CA, USA) was used to measure absorbance at 570 and 600 nm.

[3] = system: K-562; experiment: Alamar blue cytotoxicity assay; details: 72 h, read-out: IC50 and 95%CI
Experimental: as §1

[4] = system: U-87 MG; experiment: Alamar blue cytotoxicity assay; details: 72 h, read-out: IC50 and 95%CI
Experimental: as §1

[5] = system: HepG2; experiment: Alamar blue cytotoxicity assay; details: 72 h, read-out: IC50 and 95%CI
Experimental: as §1

[6] = system: HSC-3; experiment: Alamar blue cytotoxicity assay; details: 72 h, read-out: IC50 and 95%CI
Experimental: as §1

[7] = system: OVCAR-3; experiment: Alamar blue cytotoxicity assay; details: 72 h, read-out: IC50 and 95%CI
Experimental: as §1

[8] = system: H1299; experiment: Alamar blue cytotoxicity assay; details: 72 h, read-out: IC50 and 95%CI
Experimental: as §1

[9] = system: SCC-9; experiment: Alamar blue cytotoxicity assay; details: 72 h, read-out: IC50 and 95%CI
Experimental: as §1

[10] = system: SCC4; experiment: Alamar blue cytotoxicity assay; details: 72 h, read-out: IC50 and 95%CI
Experimental: as §1

[11] = system: HCT116; experiment: Alamar blue cytotoxicity assay; details: 72 h, read-out: IC50 and 95%CI
Experimental: as §1

[12] = system: JUKART; experiment: Alamar blue cytotoxicity assay; details: 72 h, read-out: IC50 and 95%CI
Experimental: as §1

[13] = system: KG-1a; experiment: Alamar blue cytotoxicity assay; details: 72 h, read-out: IC50 and 95%CI
Experimental: as §1

[14] = system: A549; experiment: Alamar blue cytotoxicity assay; details: 72 h, read-out: IC50 and 95%CI
Experimental: as §1

[15] = system: CAL 27; experiment: Alamar blue cytotoxicity assay; details: 72 h, read-out: IC50 and 95%CI
Experimental: as §1

[16] = system: NB4; experiment: Alamar blue cytotoxicity assay; details: 72 h, read-out: IC50 and 95%CI
Experimental: as §1

[17] = system: DU 145; experiment: Alamar blue cytotoxicity assay; details: 72 h, read-out: IC50 and 95%CI
Experimental: as §1

[18] = system: HL-60; experiment: Alamar blue cytotoxicity assay; details: 72 h, read-out: IC50 and 95%CI
Experimental: as §1

[19] = system: THP-1; experiment: Alamar blue cytotoxicity assay; details: 72 h, read-out: IC50 and 95%CI
Experimental: as §1

[20] = system: A-375; experiment: Alamar blue cytotoxicity assay; details: 72 h, read-out: IC50 and 95%CI
Experimental: as §1

[21] = system: PANC-1; experiment: Alamar blue cytotoxicity assay; details: 72 h, read-out: IC50 and 95%CI
Experimental: as §1

[22] = system: MCF-7; experiment: Alamar blue cytotoxicity assay; details: 72 h, read-out: IC50 and 95%CI
Experimental: as §1

[23] = system: MDA-MB-231; experiment: Alamar blue cytotoxicity assay; details: 72 h, read-out: IC50 and 95%CI
Experimental: as §1

[24] = system: CR04 (malignant papillary mesothelioma); experiment: Alamar blue viability of primary cancer cells; details: primary papilliferous malignant mesothelioma; 25 μg/ml (RXC 31.3 μM, DOX 46 μM); 96 h
Experimental: as §1
(§2) CR03 (metastatic cholangiocarcinoma) CR04 (malignant papillary mesothelioma) […]
(§3) Figure S1. […] Cells were exposed to 25 […]
(§4) measured after 96 h using the Alamar blue assay. The data are presented as the […]
(§5) mean ± S.E.M. of four replicates. * P < 0.05 compared to CTL by one-way ANOVA […]
(§6) followed by Dunnett's multiple comparisons test. […]

[25] = system: CR01 (colorectal carcinoma); experiment: Alamar blue viability of primary cancer cells; details: primary CRC (first listed); 25 μg/ml (RXC 31.3 μM, DOX 46 μM); 96 h
Experimental: as §1, §2, §3, §4, §5, §6

[26] = system: CR03 (metastatic cholangiocarcinoma); experiment: Alamar blue viability of primary cancer cells; details: 25 μg/ml (RXC 31.3 μM, DOX 46 μM), 96 h
Experimental: as §1, §2, §3, §4, §5, §6

[27] = system: HCT116 cells; experiment: Wound healing assay; details: 72 h, noncytotoxic concentrations
Experimental: Wound healing assays were carried out as previously described, with some modifications. Cells were grown to 80–90% confluency in 12-well plates, and a wound was created by dragging a plastic pipette tip across the cell surface. The remaining cells were washed three times in saline to remove cell debris before being incubated in serum-free medium and treated with the drug. Using an optical microscope, migrating cells in front of the wound were photographed after 0 and 72 h of incubation (Nikon, TS 100). ImageJ software was used to calculate the wound area (NIH, USA).

[28] = system: HCT116 cells; experiment: CD133 expression by flow cytometry; details: 10 μM, 24 h; control 32.0%
Experimental: For cell surface protein staining, cells were washed with incubation buffer (0.5% bovine serum albumin in PBS), and then antibodies were added and incubated for 1 h at room temperature. The cells were then washed with PBS, and cell fluorescence was measured using flow cytometry. To select viable cells for quantification of CD133-positive cells, YO-PRO-1 (Sigma-Aldrich Co.) was used.

cis-[Ru(phen)2(xant)](PF6) [RXC]
HCT116 CD133-positive cells in colonospheres ([1]; 10 μM, 24 h, control 47.8%): 19.5%
colonosphere formation ([1]; 1.25-20 μM, 24, 48, 72 h): reduced colonosphere formation
IC50 [2]: 10.2 µM
IC50 [3]: 3.88 µM
IC50 [4]: 7.03 µM
IC50 [5]: 6.28 µM
IC50 [6]: 4.84 µM
IC50 [7]: 1.47 µM
IC50 [8]: 10.9 µM
IC50 [9]: 2.81 µM
IC50 [10]: 1.89 µM
IC50 [11]: 6.5 µM
IC50 [12]: 4.08 µM
IC50 [13]: 2.31 µM
IC50 [14]: 7.03 µM
IC50 [15]: 5.4 µM
IC50 [16]: 3.38 µM
IC50 [17]: 4.17 µM
IC50 [18]: 3.2 µM
IC50 [19]: 2.8 µM
IC50 [20]: 3.46 µM
IC50 [21]: 11.8 µM
IC50 [22]: 9.55 µM
IC50 [23]: 2.36 µM
reduced cell viability [24]: 79.6%
reduced cell viability [25]: 79.8%
reduced cell viability [26]: 79.2%
cell migration [27]: inhibited cell migration
HCT116 CD133-positive cells [28]: 10.1%
